In patent US6436947B1, “Trans cyclopentanyl purine analogs useful as immunosuppressants” (Aventis Pharmaceuticals Inc., priority 1991, dated 2002):
Where a name gives a salt, the structure may show the parent alone.

Tests used:
[1] = tested on: Major Histocompatibility complex (MHC) class II antigen levels on macrophages; experiment: Regulation of MHC class II expression on macrophages from M. tuberculosis-treated rats (flow cytometry, OX-6/OX-42); assay type: cell-based, rat; conditions: 10 μM, 18 hours; positive control 59%
Method: Using the method of Edwards (J. of Cell Biochemistry 5E, 155(1991)), the ability of a compound of formula (1) to reduce Major Histocompatibility complex (MHC) class II antigen levels on macrophages (MΦ) obtained from M. tuberculosis-treated rats may be measured. Cells obtained from treated rats are plated into tissue culture for a period of 4 hours to purify adherent cells, then treated with increasing levels of drug for a period of 18 hours. After this incubation period, cells are scraped from the dishes and stained using flow cytometry analysis with various monoclonal antibodies such as OX-6 a monoclonal antibody specific for MHC class II antigens and OX-42 a monoclonal antibody specific for rat macrophages.

[2] = tested on: Rat macrophage antigen presentation to mBSA-reactive T-cell hybridoma / Interleukin-2 production; experiment: Regulation of macrophage antigen presentation to rat T-cell hybridoma (Interleukin-2 production); assay type: cell-based
Method: Using the method of Ku (Cellular Immunology 130, (1990)), and a Lewis (LEW/N) rat T-cell hybridoma reactive with the protein methylated bovine serum albumin (mBSA), the ability of a compound of formula (1) to regulate MΦ antigen presentation in vitro may be measured. Peritoneal macrophages obtained from LEW/N rats are plated into tissue culture and treated with 100 μg of mBSA and drug. A control is prepared similarly. After a period of 18 hours the cells are washed and incubated with the T-cell hybridoma for an additional 12 hours. Supernatants from these cultures are obtained and measured for content of Interleukin-2, a T-cell derived lymphokine which is produced by activated T-cells. […] Rat macrophage antigen presentation and the subsequent production of Interleukin-2 are inhibited when drug is administered over a concentration range from 0.1 to 100 μM as illustrated in the following table.

[3] = tested on: endotoxin-induced septic shock in CF1 mice; experiment: Mouse endotoxin lethality model (D-galactosamine/LPS); assay type: in vivo; conditions: 100 mg/kg i.p., pretreated t=-1 hr, 18 mg D-glactoseamine and 50 ng LPS, observed 8-72 hour
Method: Using the method of Silverstein, (J. Exp. Med. 173, 357 (1991)) a mouse endotoxin lethality model may be used to determine if a compound of formula (1) has the ability to inhibit endotoxin-induced septic shock which is dependent on the production of Tumor Necrosis Factor-α (TNF-α). CF1 mice pretreated at time (t)=−1 hr with drug are challenged with 18 mg of D-glactoseamine and 50 ng of LPS, then observed for death over an 8-72 hour period.

[4] = tested on: TNF-a production by peripheral blood mononuclear cells; experiment: Inhibition of Tumor Necrosis Factor alpha in LPS-stimulated PBMC adherent cells (ELISA); assay type: cell-based; conditions: human PBMC adherent cells, 1 μg/ml LPS, 18 hours
Method: Peripheral blood mononuclear cells (PBMC) are isolated from venous blood collected from healthy volunteers in sodium citrate (5 ml of 3.6% sodium citrate for 45 ml of blood) by density gradient centrifugation of 5 minutes at 1500 rpm. The PBMC are resuspended in about 10 ml of RPMI-1640 with antibiotics. Approximately 2×10^6 cells of PBMC are added to tissue culture plates, incubated for 45-60 minutes at 37 C with 5% CO2, aspirated, and washed twice by adding about 0.5 ml fresh RPMI-1640 with 10% non-mitogenic FBS (RPMI complete) and shaking for 15 to 30 seconds. 1.0 ml RPMI-1640 is added per well to the remaining adherent cells, which are pretreated with test compound solution about 15 minutes prior to endotoxin stimulation (1 μg/ml lipopolysaccharide from E. coli or solvent concentrations equal to those of test compounds.
Cultures are incubated for 18 hours t 37 C in 5% CO2. Supernatants are tested from TNF-a using a commercial ELISA kit (Cistron, Pine Brook, N.J.). The IC50 is determined using SOFTmax software program.

Structure (SMILES) | OX-6/OX-42 double positive macrophages [1] [%] | T-cell activation ([2]; 0.1 to 100 μM) | % Inhibition (antigen presentation / Interleukin-2 production) ([2]; in vitro concentration 0.1 μM) [%] | % Inhibition (antigen presentation / Interleukin-2 production) ([2]; in vitro concentration 1.0 μM) [%] | % Inhibition (antigen presentation / Interleukin-2 production) ([2]; in vitro concentration 10.0 μM) [%] | % Inhibition (antigen presentation / Interleukin-2 production) ([2]; in vitro concentration 100.0 μM) [%] | protection against endotoxin lethality [3] | IC50 [4] [µM]
Cl.Nc1ncnc2c1ncn2[C@@H]1CC[C@@H](O)C1 (relative stereo) [Example 1, (1R,3R)-trans-1(9-Adenyl)cyclopentan-3-ol Hydrochloride] | 39 | inhibits T-cell activation | 7.6 | 30.9 | 48.7 | 55.3 | protects against endotoxin lethality | 9
Nc1nc(Cl)nc2c1ncn2[C@@H]1CC[C@@H](O)C1 (relative stereo) [Example 6, (1R,3R)-trans-1-[9-(6-Amino-2-chloropurinyl)]cyclopentan-3-ol Hydrochloride] |  |  |  |  |  |  |  | 4.1
Nc1ncnc2c1ncn2[C@@H]1CCC[C@H]1O (racemic) [(±)-Trans-1-(9-adenyl)-2-hydroxycyclopentane, reference compound] |  |  |  |  |  |  |  | 22.2
